Measured values as given in paper PMC12323621, “Exploring the antimicrobial activity of pantothenamides against uropathogenic Escherichia coli” (Microbiology Spectrum, 2025).
Read-outs that look alike come from different tables or passages of the source.

Assays:
[1] = Stability in mouse plasma; format: in vitro ADME; details: for stability in mouse plasma: n = 3
Experimental: (§1) Stability studies were conducted in mouse liver microsomes, mouse liver tissue homogenate, and CD1 mouse plasma as previously described with minor modifications ([54][–][56]). Briefly, for Phase I mouse liver microsome stability, reactions were carried out with 200 mM potassium phosphate buffer, pH 7.4, with or without an NADPH-regenerating system (1.3 mM NADPH, 3.3 mM glucose 6-phosphate, 3.3 mM MgCl2, 0.4 U/mL glucose-6-phosphate dehydrogenase, and 50 µM sodium citrate). Reactions, in triplicate, were initiated by the addition of liver microsomes to the incubation mixture (compound final concentration was 1 µM; 0.2 mg/mL microsomes) and incubated at 37°C for the desired incubation time. For liver stability, the tissue homogenate was prepared by washing tissues with diluted 10-fold 0.1 M potassium phosphate buffer and homogenized using a probe sonicator over ice. To evaluate the stability of the drugs over time, each of the crude homogenates was aliquoted to 1 mL and then spiked with a final assay concentration of 10 µM of each drug, followed by incubation in an orbital shaker at 37°C for 1 h (in triplicate). For plasma stability, 1 mL of plasma was spiked with 10 µM of each drug, followed by incubation in an orbital shaker at 37°C for 1 h (in triplicate). Samples from each metabolism study were quenched with 3× volume of acetonitrile containing internal standard (losartan: 0.5 µM) at the desired incubation times. […] Samples were vortex-mixed for 30 s and centrifuged at 10,000 × g for 10 min at 4°C. Compound disappearance over time was monitored using a Dionex ultra-high-performance liquid chromatography system consisting of an analytical pump and an autosampler coupled with Q Exactive Focus orbitrap mass spectrometer (Thermo Fisher Scientific Inc., Waltham MA). […] The mobile phase used was composed of 0.1% formic acid in water and 0.1% formic acid in acetonitrile with gradient elution. The total run time for each analyte was 5 min.
(§2) The mass spectrometer was operated with a HESI ion source in positive ionization mode where compounds were identified in the full scan mode (from m/z 75.00–1125.00) and controlled by the Xcalibur software 4.0.27.13 (Thermo Scientific). Data were acquired using Xcalibur software. Drugs were identified in the full-scan mode (from m/z 75.00 to 1125.00) by comparing t = 0 samples with t = 30 or 60 min samples, and structures were proposed based on the accurate mass information. The percentage of compound remaining for pantothenamides 1, 6, and 7 was determined from the analyte/internal standard (IS) area ratios obtained at t = 30 or 60 min relative to the mean ratios obtained at t = 0 min and calculated using equation 1:
(§3) % Remaining=(Peak area of Analyte/Preak area of ISat t=30 or 60 min/MeanPeak area of Analyte/Peak area of ISat t=0 min)×100

[2] = Phase I metabolic stability in mouse liver microsomes; format: in vitro ADME; details: for remaining at 1 h, 1 µM: mouse, liver microsomes, pH 7.4, 1 h; for stability in mouse liver microsomes: n = 3
Experimental: as §1, §2, §3

Structure (SMILES) | remaining at 1 h, 10 µM ([1]; CD1, mouse, plasma, 1 h, 10 µM compound, 37°C) | stability in mouse plasma [1] | remaining at 1 h, 1 µM ([2]; with NADPH, 1 µM compound, 0.2 mg/mL microsomes, read-out: % remaining in mouse liver microsomes, presence of NADPH) | remaining at 1 h, 1 µM ([2]; without NADPH, 1 µM compound, 0.2 mg/mL microsomes, read-out: % remaining in mouse liver microsomes, absence of NADPH) | stability in mouse liver microsomes [2] | % remaining in mouse plasma ([1]; 1 h, 10 µM compound, 37°C) | % remaining in mouse liver microsomes, presence of NADPH ([2]; 1 h, with NADPH, 1 µM compound, 0.2 mg/mL microsomes) | % remaining in mouse liver microsomes, absence of NADPH ([2]; 1 h, without NADPH, 1 µM compound, 0.2 mg/mL microsomes)
CCCCCNC(=O)CCNC(=O)[C@H](O)C(C)(C)CO [compound 1, N-pentylpantothenamide, reference compound] | < 1% | unstable | 90% | 93% | good stability | – | – | –
CCCCCNC(=O)CNC(=O)[C@H](O)C(C)(C)CO [compound 6, N5-α-pantothenamide] | – | good stability | – | – | good stability | no degradation | no degradation | no degradation
